Laboratory results taken from US20230089267A1, “Compositions and Methods For Reducing Immune Intolerance and Treating Autoimmune Disorders” (Lapix Therapeutics, Inc., priority 2021, published 2023).

Experiments:
[1] = tested on: MOG35-55-induced murine EAE model; experiment: MOG35-55-induced murine EAE model, Compound 2 versus Compound 8 (Example 12); format: in vivo, mice; conditions: 3 μg/mouse/day SC, after ten days of treatment
Experimental: Mice were immunized with 100 μg MOG35-55 emulsified with CFA and pertussis toxin, as described in Example 4. At disease onset (clinical score 1), mice were randomized into two treatment groups, and received 3 μg/mouse/day SC of either Compound 2 or Compound 8.

[2] = tested on: passive MG model; experiment: Passive myasthenia gravis model, adoptive transfer to RAG2−/− mice; format: in vivo; conditions: by day 10, SC daily for ten days
Experimental: In this passive MG model in B6 mice, donor mice (n=20, aged 6-8 weeks) were immunized with complete Freund's adjuvant (CFA) and nicotinic acetylcholine receptor (AChR) emulsion weekly for four weeks. Seven days after the last immunization, splenocytes were collected, and 10^6 cells/mouse were transferred to RAG2^−/− mice. The recipient mice (n=10/group) were treated one day after adoptive transfer with prednisone (1 μg/mouse) SC daily for ten days after disease onset or Compound 2 3 μg SC daily for ten days after disease onset, or were left untreated. Minimal manifestation of disease was defined as a return to a clinical score of 1 after an exacerbation (score 2 or higher). Time to return to minimal score was logged, and the likelihood of return was plotted for untreated animals, and standard of care (SOC; prednisone)- and Compound 2-treated animals.

[3] = tested on: FoxP3+/CD4+ T-cells in splenocytes from naïve C57BL/6 mice; experiment: In vitro dose-response, percent FoxP3+/CD4+ T-cells in murine splenocytes; format: cell-based
Experimental: All animal studies were conducted under IACUC number B2020-91 and in compliance with Tufts University/Tufts Medical Center & Human Nutrition Research Center on Aging. Animals were housed four in a cage and had access to food and water ad libitum. Anti-FoxP3 and anti-CD4 for flow cytometry were obtained from eBioscience. Compounds 1-3 were formulated with 10% DMPC in PBS. PS liposomes were synthesized at a 30:70 PS:lipid molar ratio.
Splenocytes from naïve C57BL/6 mice were stained with CFSE, seeded at 2×10^5 cells/well, and dosed with each compound from 1e^−4 μM to 3.0e^−9 μM using a log 2 dilution scheme. Cells were incubated for 72 hours before phenotyping for FoxP3+/CD4+ T-cells. Flow cytometer analysis was performed to assess changes in percent FoxP3+/CD4+ T-cells as a function of compound and dose. Concentration versus response was fitted to a 4-parameter, log-logistic model using the “dre” package in “R”. Both EC50 and EC90 were obtained by model fitting.
Cells were observed via a microscope at the end of the incubation period. All cells looked healthy and suitable for flow cytometry analysis.
Table 2 summarizes EC50 and EC90 values obtained from the model fitting.

[4] = tested on: Th17 (RORγt) cells; experiment: Human PBMCs in Th17 polarizing environment, Foxp3 and RORγt expression; format: cell-based
Experimental: Total human PBMCs isolated from healthy human volunteers were cultured in vitro in a Thl7 polarizing environment as follows: • Day 0: 2×10^5 cells/well were incubated in a 96 round bottomed-well plate (final volume 200 μl) with (i) anti CD3/CD28 microbead for T-cell activation (1 bead/10 cells), (ii) 10 ng/ml IL-6, 2 ng/ml TGFβ and 10 ng/ml IL-23, and (iii) 10 μg/ml anti-IFNγ and 10 μg/ml anti-IL-4. • Day 4: Each well was split into two wells, and 100 μl of media containing the same cytokine/antibody cocktail used at day 0 was added to each well in the presence of ascending doses of Compound 2 (0, 0.1, 0.3, 1, and 3 ng/ml). • Day 9: Cells were washed and stained for surface staining (CD3, CD4), then viability dye to exclude dead cells. Intranuclear staining was performed after cell fixation and permeabilization for transcription factors Foxp3 and RORγt. Cells were washed and fixed for acquisition by Attune NXT flow cytometer. Data were analyzed by FlowJov10.

[5] = tested on: DSS-induced IBD model; experiment: Dextran sulfate sodium (DSS)-induced IBD model; format: in vivo, mice; conditions: 30 μg SC for 7 days then 3 μg SC for 7 days, both disease cycles
Experimental: IBD was induced in 6-8-week-old female C57/B6 mice by adding 3% DSS (Sigma Aldrich) in their drinking water for 3 days on 2 different occasions (days 0, 1, and 2 of the induction phase and days 11, 12, and 13 of the re-exposure phase). One group (n=5) was treated with Compound 2 (30 μg SC for 7 days) during the disease induction phase followed by a lower dose of Compound 2 (3 μg SC for 7 days) during the disease re-exposure phase. […] Mice body weight was monitored daily starting on day 0.

[6] = Mus musculus, T-cell, percent FoxP3+/CD4+ T-cells, 72 hours, 4-parameter log-logistic model fit

N[C@@H](CNC(=O)Cc1ccc(OCc2cccc3ccccc23)cc1)C(=O)O [Compound 2, (S)-2-Amino-3-(2-(4-(naphthalen-1-ylmethoxy)phenyl)acetamido)propanoic acid]
mean clinical score, comparison of the two groups [1]: no statistical difference | animals returned to minimal manifestation of disease (score 1) [2]: 63% | EC50 [3, 6]: 6.02 pM | EC90 [3, 6]: 0.0199 nM | mean FoxP3+/CD4+ T-cells, upper plateau, mean (SEM) ([3]; high dose, from model fitting): 4.54 (0.14) % | dose-response behaviour of FoxP3+/CD4+ T-cells ([3]; in words): showed a clear plateau | mean FoxP3+/CD4+ T-cells, lower plateau, mean (SEM) ([3]; low dose, from model fitting): 2.20% | decrease in RORγt cells [4]: 80% | percentage of Th17, mean after treatment [4]: 1.1% | body weight change [5]: less weight loss and more rapid recovery than untreated animals
